Assay results taken from US8076334B2, “Prodrugs of thyroid hormone analogs” (Hoffmann-La Roche Inc., priority 2007, dated 2011).

Tests used:
[1] = Permeability from Caco-2 cells (transport assay); assay type: in vitro ADME; conditions: human; Caco-2 monolayers, transport medium pH 7.4, samples at 60 and 120 min
Method: (§1) Caco-2 cells were grown in Minimum Essential Medium (MEM), containing 10% fetal bovine serum, 1% non-essential amino acids, 100 units/ml penicillin and 100 μg/ml streptomycin. They were incubated at 37° C. in a humidified atmosphere of 5% CO2. Culture medium was changed every other day. Caco-2 cells were passed once per week by trypsinization.
(§2) Caco-2 cells were seeded at a density of 4.55×10^5 cells/cm^2. Caco-2 cells were incubated for 7 days at 37° C. Medium was changed every two or three days for Caco-2 cells. Prior to the experiment, cells were equilibrated with transport medium [HBSS (pH 7.4) containing 10 mM HEPES] at 37° C. for 30 min. The transepithelial electrical resistance (TEER) of cell monolayers was measured using “chopstick” electrodes (World Precision Instruments, Sarasota, Fla.). Caco-2 cell monolayers with TEER values>500 were used for the assays.
(§3) Samples were prepared in transport medium containing 1% DMSO. Test compounds were applied to the donor chamber at 10 μM. Plates were incubated at 37 °C while shaking at 90 rpm. Samples were taken at 60 and 120 min from the receiver chamber. TEER values were measured at 5 minutes before the final sampling time point. Samples were mixed with 2 volumes of acetonitrile and centrifuged at 3,500 rpm at 4° C. for 10 min. The supernatant was diluted with 1 volume of water containing 1% acetic acid. Samples were analyzed by LC/MS. Standard serial dilutions were prepared manually at 10, 50, 250, 1,250 and 2,500 nM.
(§4) The apparent permeability (Papp) was calculated with the following equation:
(§5) [formula] where C is the receiver chamber drug concentration, t is time in second, V is the volume of the receiver chamber, Co is the initial drug concentration in the donor chamber and A is the surface area of the filter.

Caco-2 cells = test: Permeability from Caco-2 cells (transport assay); assay type: in vitro ADME; conditions: Caco-2; calculated from pro-drug only, does not include converted drug; in % (unit assumed)
Method: as §1, §2, §3, §4, §5

[2] = Single dose PO PK in rats; assay type: in vivo; conditions: rat, 10 mg/kg PO
Method: A single dose (10 mg/kg) PO (intubation) PK in rats (3 animals) was performed with the compound of Example 5 using a 2% Klucel, 0.1% Tween 80 in water formulation.
Aliquots (0.05 mL) of rat plasma were protein precipitated with acetonitrile. The extracts were diluted with an equal volume of water and injected onto the LC/MS/MS system.
Both the prodrug and parent, compound Ia, were monitored. […] Variability in exposure of the parent after dosing with the prodrug was improved over that obtained after dosing with parent.

[3] = Single dose PO PK in dogs; assay type: in vivo; conditions: dog, 10 mg/kg PO
Method: A single dose (10 mg/kg) PO (intubation) PK in dogs (3 animals) was performed with the compound of Example 5 using a 2% Klucel, 0.1% Tween 80 in water formulation.
Aliquots (0.05 mL) of dog plasma were mixed with 0.050 mL of pH 7.4 phosphate buffered saline and a 0.010 mL aliquot of a stable labeled internal standard working solution. Each of the samples was then extracted with 0.500 mL of ethyl acetate. A 0.350 mL aliquot of each of the sample extract supernatant was transferred to an injection block and evaporated to dryness using the turbovap evaporator. The sample was then reconstituted with 0.200 mL of a 1:1 mixture of water:acetonitrile containing 0.1% acetic acid. A 0.020 mL sample from each well was injected onto the LC/MS/MS system.
The compound of Example 5was dosed orally to dogs at 10 mg/kg. Both the prodrug and parent, compound Ia, were monitored. […] However, the variability in the oral exposure was reduced when dosed with the compound of Example 5 as compared when dosed with parent.

THR-beta/RXR/GRIP = target: T1, THR-beta/RXR/GRIP (Homo sapiens, UniProt P10828); test: THR-beta/RXR/GRIP coactivator peptide recruitment assay (HTRF); assay type: biochemical; conditions: H6-TRβ ligand binding domain, EE-RxRα, biotin-GRIP peptide
T1 construct: made in house; host or cells: E. coli BL21 (DE3) for H6-TRβ; E. coli for EE-RxRα
T1 sequence (P10828 202-461 limits assumed): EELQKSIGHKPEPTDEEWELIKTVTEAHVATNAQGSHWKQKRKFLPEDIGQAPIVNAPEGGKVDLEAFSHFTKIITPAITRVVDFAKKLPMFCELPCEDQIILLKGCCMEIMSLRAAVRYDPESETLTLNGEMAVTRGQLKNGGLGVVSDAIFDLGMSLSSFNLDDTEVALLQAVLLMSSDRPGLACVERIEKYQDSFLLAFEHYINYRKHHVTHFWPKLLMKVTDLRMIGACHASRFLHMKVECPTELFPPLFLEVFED
T1 sequence (P19793 225-462 partner limits assumed): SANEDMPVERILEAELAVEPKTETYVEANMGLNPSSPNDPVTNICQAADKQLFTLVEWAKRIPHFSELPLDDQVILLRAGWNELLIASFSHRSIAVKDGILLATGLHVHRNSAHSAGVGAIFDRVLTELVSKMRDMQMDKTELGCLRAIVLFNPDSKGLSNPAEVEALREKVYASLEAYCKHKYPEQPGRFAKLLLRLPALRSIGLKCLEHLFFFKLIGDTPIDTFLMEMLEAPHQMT
T1 sequence (Q15596 679-703 partner limits assumed): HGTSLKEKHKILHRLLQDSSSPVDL
Method: In this Example, a TR/RXR/GRIP assay was used to test representative compounds of formula (I).
Lysozyme (1.0 mg/ml, Sigma) and Complete Protease Inhibitor Cocktail (Roche Diagnostics Gmbh) were added to slurry and solution sonicated for one min five times at 4° C.
The resulting His6-EE-tagged protein was produced in E. coli cells. Cells were grown using shake flasks with an 18 hour induction in 0.1 mM IPTG at 18° C., harvested and suspended with five volumes of Buffer B (0.025M Tris, 0.3M NaCl, 0.02 M imidazole, 0.01M β-mercaptoethanol, pH 8.0). Lysozyme (0.2 mg/ml, Sigma) and Complete Protease Inhibitor Cocktail (Roche Diagnostics Gmbh) were added and stirred for 30 min. at 4° C. The suspension was sonicated for 30 seconds, five times, at 4° C. The suspension was centrifuged for 20 min. at 12,000 RCF. The supernatant was filtered by 0.45 μm pore size membrane and 0.5% NP-40 was added. […] The protein was concentrated and dialyzed.
The His6 tag was removed from EE-RxRα by thrombin digestion, using 10 units thrombin (Pharmacia, Piscataway, N.J.) per mg protein and incubating for 2 hours at 25° C. […]
Six microliters of T3 (0-14.8 uM) or test compound (0-1.2 mM) in DMSO was then added and the solution incubated at 37° C. for 30 min. […] The HTRF signal was read on the Victor 5 reader (PerkinElmer Life and Analytical Sciences).

[4] = plasma level of parent compound Ia

In the case of `CC(=O)OCn1nc(Oc2c(Cl)cc(-n3nc(C#N)c(=O)[nH]c3=O)cc2Cl)cc(C(C)C)c1=O` [Example 2, Acetic acid 3-[2,6-dichloro-4-(6-cyano-3,5-dioxo-4,5-dihydro-3H-[1,2,4]triazin-2-yl)-phenoxy]-5-isopropyl-6-oxo-6H-pyridazin-1-ylmethyl ester], the Papp at 120 min, 10 μM [1] is reported as 45.8 ± 7.4 nm/s and the “Mass Balance” value (Caco-2 cells) is reported as 71.0.
For `CC(C)c1cc(Oc2c(Cl)cc(-n3nc(C#N)c(=O)[nH]c3=O)cc2Cl)nn(COC(=O)CN2CCOCC2)c1=O` [Example 12, Morpholin-4-yl-acetic acid 3-[2,6-dichloro-4-(6-cyano-3,5-dioxo-4,5-dihydro-3H-[1,2,4]triazin-2-yl)-phenoxy]-5-isopropyl-6-oxo-6H-pyridazin-1-ylmethyl ester], the Papp at 120 min, 10 μM [1] was 17.5 ± 6.5 nm/s and the “Mass Balance” value (Caco-2 cells) was 95.0.
In the case of `CC(C)c1cc(Oc2c(Cl)cc(-n3nc(C#N)c(=O)[nH]c3=O)cc2Cl)nn(COC(=O)CCC(=O)O)c1=O` [Example 13, Succinic acid mono-{3-[2,6-dichloro-4-(6-cyano-3,5-dioxo-4,5-dihydro-3H-[1,2,4]triazin-2-yl)-phenoxy]-5-isopropyl-6-oxo-6H-pyridazin-1-ylmethyl}ester], the Papp at 120 min, 10 μM [1] is reported as 2.3 ± 0.6 nm/s and the “Mass Balance” value (Caco-2 cells) is reported as 84.4.
With `CC(C)c1cc(Oc2c(Cl)cc(-n3nc(C#N)c(=O)[nH]c3=O)cc2Cl)n[nH]c1=O` [Ia, 2-[3,5-Dichloro-4-(5-isopropyl-6-oxo-1,6-dihydro-pyridazin-3-yloxy)-phenyl]-3,5-dioxo-2,3,4,5-tetrahydro-[1,2,4]triazine-6-carbonitrile, reference compound] the “AUC Extrap” value [2, 4] was 28,663 ng * Hours/mL, the Tmax [2, 4] was 5 h and the AUC [3, 4] was 2,936 ng * Hours/mL. The Tmax [3, 4] was 3 h.
In the case of `CC(C)c1cc(Oc2c(Cl)cc(-n3nc(C#N)c(=O)[nH]c3=O)cc2Cl)nn(COC(=O)c2cnccn2)c1=O` [Example 8, Pyrazine-2-carboxylic acid 3-[2,6-dichloro-4-(6-cyano-3,5-dioxo-4,5-dihydro-3H-[1,2,4]triazin-2-yl)-phenoxy]-5-isopropyl-6-oxo-6H-pyridazin-1-ylmethyl ester], the Papp at 120 min, 10 μM [1] is reported as 9.2 ± 1.1 nm/s and the “Mass Balance” value (Caco-2 cells) is reported as 92.8.
With `CC(C)C(=O)OCn1nc(Oc2c(Cl)cc(-n3nc(C#N)c(=O)[nH]c3=O)cc2Cl)cc(C(C)C)c1=O` [Example 5, Isobutyric acid 3-[2,6-Dichloro-4-(6-cyano-3,5-dioxo-4,5-dihydro-3H-[1,2,4]triazin-2-yl)-phenoxy]-5-isopropyl-6-oxo-6H-pyridazin-1-ylmethyl ester] the EC50 (THR-beta/RXR/GRIP) was over 57.6 µM, the Papp at 120 min, 10 μM [1] was 88.7 ± 6.3 nm/s and the “Mass Balance” value (Caco-2 cells) was 47.9. The “Absorption of the prodrug compared with the parent” value [2] was “faster than the parent”, the “Variability in exposure of the parent after dosing with the prodrug versus dosing with parent” value [2] was “improved” and the “Species detected in plasma after oral dosing of the prodrug” value ([2]; prodrug and parent monitored) was “only the parent was detected”. The “Bioavailability of parent after dosing with the prodrug versus dosing with parent” value [3] was “comparable”, the “Variability in the oral exposure versus dosing with parent” value [3] was “reduced” and the “Species detected in plasma after oral dosing of the prodrug” value ([3]; prodrug and parent monitored) was “only the parent was detected”.
With `CC(C)c1cc(Oc2c(Cl)cc(-n3nc(C#N)c(=O)[nH]c3=O)cc2Cl)nn(COC(=O)N2CCOCC2)c1=O` [Example 6, Morpholine-4-carboxylic acid 3-[2,6-dichloro-4-(6-cyano-3,5-dioxo-4,5-dihydro-3H-[1,2,4]triazin-2-yl)-phenoxy]-5-isopropyl-6-oxo-6H-pyridazin-1-ylmethyl ester] the Papp at 120 min, 10 μM [1] was 12.4 ± 2.4 nm/s and the “Mass Balance” value (Caco-2 cells) was 101.5.
